Source: patent publication US11154515B2, “Pharmaceutical compositions comprising cannabidiol and beta-caryophyllene and methods for their use” (priority 2017, dated 2021)
Where two headings read alike, the source gives them in different places.

Assays:
[1] = test system: NF-κB and AP-1 inducible SEAP reporter in RAW-Blue™ cells; test: RAW-Blue™ cells Quanti-Blue™ SEAP reporter assay, LPS-stimulated (high-throughput inflammatory assay); format: cell-based, murine
Excerpt: RAW 264.7 macrophages are commonly used to study the functional characteristics of the endocannabinoid system (ECS). Specifically, this model is widely employed to assess the anti-inflammatory functions of the ECS (Carrier, et al. 2006, “Inhibition of an equilibrative nucleoside transporter by cannabidiol: A mechanism of cannabinoid immunosuppression,” PNAS, 103(20), 7895-7900). RAW-Blue™ cells are derived from RAW 264.7 macrophages and are genetically modified to comprise a secreted embryonic alkaline phosphatase (SEAP) reporter construct that is inducible by NF-κB and AP-1. These RAW-Blue™ cells express a variety of pattern recognition receptors, including Toll like receptor 4 (TLR4). The activation of these pattern recognition receptors on the RAW-Blue™ cells (e.g., by lipopolysaccharide (LPS) in the case of TLR4) induces signaling through NF-κB and/or AP-1, thereby leading to increased secretion of the SEAP reporter gene. Therefore, the RAW-Blue™ macrophages and provide a robust, high-throughput model of inflammatory processes.
RAW-Blue™ cells were cultured in high-glucose containing Dulbecco's Modified Eagle Medium (Merck) supplemented with 10 (V/V) % fetal bovine serum (FBS; ThermoFisher), 2-4 mM L-glutamine, 50 U/mL penicillin, 50 μg/mL streptomycin as well as with antibiotics for selection: 100 μg/mL Normocin™ (InvivoGen) and Zeocin™ (InvivoGen). Cells were cultured at 37° C. in humidified, 5% CO2 containing atmosphere. The medium was changed every other day, and cells were sub-cultured at 70-80% confluence.
For each of these phases, 100,000 RAW-Blue™ cells/well were seeded in a 96-well plate in triplicate and cultured for 24 hours to allow attachment of the macrophages to the cell culture plate. After 24 hrs cells were pre-treated with selected concentrations of CBD, BCP, or CBD+BCP. Two hours after drug pre-treatment, cells were stimulated with 0.1 μg/mL LPS (Sigma-Aldrich) to induce activation of the TLR4 pathway. After 24 hours of LPS stimulation, 150 μL Quanti-Blue™ Medium was aliquoted per well in a 96-well plate and 50 μL of the experimental supernatants were added per well. Cell culture medium was used as negative control. After 1 hour incubation, SEAP levels were detected by measuring absorbance levels at λ=650 nm at 37° C. Results are expressed as a % decrease in SEAP levels in drug-treated, LPS-stimulated groups compared to the SEAP level of the untreated, LPS-stimulated group (regarded as 100%). All experiments were repeated 2-3 times.

[2] = test system: male NMRI mice, carrageenan-induced paw edema; test: Carrageenan-induced paw edema, plethysmometry; format: in vivo, mouse; conditions: for basal paw volume vs vehicle-treated mice: single doses i.p. (CBD 0.5, 1, 10, 30 mg/kg; BCP 1, 5, 10, 30 mg/kg), 30 min after administration
Experimental: CBD and BCP solutions (≥80%, FCC, FG) were dissolved in a solution containing 10% Tween 80 and 90% saline (vehicle) and were freshly prepared immediately before use. Mice were treated with drug solutions or vehicle control by intraperitoneal (i.p.) injection at a volume of 0.1 mL/10 g body weight. Acute paw injury was induced by intraplantar injection of 20 μL 3% carrageenan (dissolved in 0.9% NaCl, Sigma Aldrich, St. Louis, Mo., USA) into the right hind paw.
Experiments were performed on 7-16-week-old male NMRI mice (30-50 g) provided with standard chow and water ad libitum. Mice were divided into groups and treated with a single dose of vehicle control (VEH), CBD, BCP, or CBD+BCP delivered i.p. 30 minutes after drug administration, measurements were taken to determine baseline values for mechanonociceptive thresholds and paw volumes. 35 minutes after drug administration, 20 μL of 3% carrageenan was injected intraplantarly (i.pl.) in the right hind paws. 3 hours after carrageenan administration, additional measurements were taken to determine the mechanonociceptive thresholds and paw volumes of the ipsilateral and contralateral paws.
Baseline and post-carrageenan injection paw volume was determined by plethysmometry (Ugo Basile Plethysmometer 7140, Comerio, Italy) and expressed in cubic centimeter (cm^3). Paw edema was presented as percentage increase of baseline values obtained prior to carrageenan administration (Bolcskei K. et al., Pain. 2005; 117:368-76).

[3] = most CBD and BCP single dose pre-treatments, three hours after i.pl. carrageenan
[4] = Mus musculus, RAW-Blue, read-out: % Inhibition Alone

Structure (SMILES): C=C(C)[C@@H]1CCC(C)=C[C@H]1c1c(O)cc(CCCCC)cc1O [CBD, cannabidiol]
- inhibition at 10 pM ([1]; Mus musculus, RAW-Blue, single agent 0.00001 μM, read-out: % Inhibition Alone): 1.9 ± 0.9%
- inhibition at 0.0001 µM ([1]; Mus musculus, RAW-Blue, single agent 0.0001 μM, read-out: % Inhibition Alone): 2.4 ± 2%
- inhibition at 0.001 µM ([1]; Mus musculus, RAW-Blue, single agent 0.001 μM, read-out: % Inhibition Alone): 3.1 ± 3.1%
- inhibition at 0.01 µM ([1]; Mus musculus, RAW-Blue, single agent 0.01 μM, read-out: % Inhibition Alone): 5.8 ± 2.9%
- inhibition at 0.1 µM ([1]; Mus musculus, RAW-Blue, single agent 0.1 μM, read-out: % Inhibition Alone): 8.5%
- inhibition at 0.3 µM ([1]; Mus musculus, RAW-Blue, single agent 0.3 μM, read-out: % Inhibition Alone): 10 ± 0.8%
- inhibition at 1 µM ([1]; Mus musculus, RAW-Blue, single agent 1 μM, read-out: % Inhibition Alone): 44.6%
- inhibition at 3 µM ([1]; Mus musculus, RAW-Blue, single agent 3 μM, read-out: % Inhibition Alone): 40.5 ± 9.5%
- inhibition at 10 µM ([1]; Mus musculus, RAW-Blue, single agent 10 μM, read-out: % Inhibition Alone): 59.3 ± 3.7%
- inhibition at 30 µM ([1]; Mus musculus, RAW-Blue, single agent 30 μM, CBD value flagged * possibly cytotoxicity, read-out: % Inhibition Alone): 78 ± 7.9%
- concentrations with marked effects on SEAP levels ([1]; applied alone): ≥ 1 µM
- % Inhibition Alone ([1]; single agent 30 μM, CBD value flagged * possibly cytotoxicity): *78 ± 7.9%
- carrageenan-induced increase of the paw volume ([2]; 0.5 mg/kg CBD alone, 3 hours after carrageenan): not influenced
- carrageenan-induced increase of the paw volume ([2]; 1 mg/kg CBD alone, 3 hours after carrageenan): not influenced
- carrageenan-induced increase of the paw volume [2, 3]: only mildly influenced
- basal paw volume vs vehicle-treated mice [2]: none of the investigated single doses of CBD or BCP influenced the basal paw volume

Structure (SMILES): C=C1CC/C=C(\C)CC[C@H]2[C@H]1CC2(C)C [BCP, (E)-beta-caryophyllene]
- inhibition at 0.0001 µM [1, 4]: 0%
- inhibition at 0.001 µM [1, 4]: 1 ± 0.8%
- inhibition at 0.01 µM [1, 4]: 3.8 ± 1.9%
- inhibition at 0.013 µM [1, 4]: 9.2%
- inhibition at 0.1 µM [1, 4]: 8 ± 6.4%
- inhibition at 0.13 µM [1, 4]: 0%
- inhibition at 0.3 µM [1, 4]: 1.6 ± 1.4%
- inhibition at 1 µM [1, 4]: 2.5 ± 2%
- inhibition at 3 µM [1, 4]: 1.25 ± 1%
- inhibition at 10 µM [1, 4]: 28.6 ± 14.3%
- inhibition at 30 µM [1, 4]: 0%
- inhibition at 100 µM [1, 4]: 11.7 ± 5.8%
- inhibition at 300 µM [1, 4]: 92.2 ± 17.1%
- anti-inflammatory actions when applied alone ([1]; SEAP levels): only minor (if any) anti-inflammatory actions
- % Inhibition Alone ([1]; single agent 300 μM, * possibly cytotoxicity): *92.2 ± 17.1%
- carrageenan-induced paw edema ([2]; 30 mg/kg i.p., three hours after carrageenan, vehicle 60%, p<0.0001): 20%
- carrageenan-induced increase of the paw volume [2, 3]: only mildly influenced
- basal paw volume vs vehicle-treated mice [2]: none of the investigated single doses of CBD or BCP influenced the basal paw volume
